This is an account of results in patent US9307768B2, “Synergistic combination of a flurochloridone compound and IPBC for dry film protection” (priority 2013, dated 2016).

The test system of assay [1] is Chlorella sp. ATCC 7516. The experiment in a line: Algal efficacy testing of dry paint film (modified ASTM 5589, 6-well plates). It counts as cell-based. The note with it: 3 weeks; for Total conc: total biocide concentration in paint reaching pass level (at least 75% inhibition). On the procedure: (§1) Slurries containing 33% antimicrobial active ingredient (flurochloridone) were post added to a white, acrylic/silicone based outdoor paint free of biocides to give a total active ingredient concentration of 10000 and 1000 ppm respectively. ROCIMA™ 250 (40% IPBC) was post added to a white, acrylic/silicone based outdoor paint free of biocides to give a total active ingredient concentration of 10000 and 1000 ppm respectively. These paints were then diluted with an antimicrobial free acrylic/silicone based paint and mixed to prepare targeted concentrations of antimicrobial compounds for the testing. The total biocides concentrations tested were 125, 250, 500, 1000, 2000 and 5000 ppm. After biocides addition or dilution, the paints were mixed 90 seconds with the horse power shaker (AXEL 75M3372/ Agitateur SO-10MI) until uniformity was achieved. Paints containing different antimicrobial compounds at the same levels were mixed together in order to obtain the desired ratio of antimicrobial compounds. After one day, the paints were applied to Schleicher & Schuell filter paper at 280 μm wet film thickness and dried for 3 days at room temperature avoiding direct exposure to sunlight. Square discs (1.6 cm×1.6 cm) were cut out from each panel and were used as the substrate for algal efficacy tests. This sample size allowed for an agar border when the sample disc was placed into the well of the test plate.
(§2) Algal efficacy was tested according to modified ASTM 5589 which is a standard accelerated test method for determining resistance of various coatings (including paints) to algal defacement. To accommodate for high-throughput screening, this method was scaled down from petri dishes to 6-well plates. Bold Modified Basal Freshwater Nutrient Solution was used as growth medium. A single coated filter paper coupon was placed with a pair of sterile forceps at the center of the agar plug (on top) with the painted surface facing upwards. Algal inoculums were prepared by mixing equal concentrations (1×10^6 cfu/ml) and equal volumes of exponentially growing algae cultures.
(§3) Each well that contains a tested coupon was inoculated with 1750 μl of algal suspensions (1×10^6 cfu/ml) making sure that the whole surface (paint film as well as the agar surrounding it) was evenly covered. The plates were incubated at room temp (21° C.-25° C.) with cyclic exposure to light and dark phases, for a period of three weeks. The total area inhibited was evaluated at the end of each week according to percent area covered in 5% increments.
(§4) At the end of the three week incubation period, the samples were scored for percent inhibition regarding color intensity compared to the blank sample.
(§5) The SI is calculated based on F. C. Kull et.
(§6) The minimal targeted inhibition was set at 75%, meaning a coupon with at least 75% algal growth inhibition was considered as a pass.

For assay [2], the system named is Stichococcus bacillaris SAG 379-1a. The assay is described as above. It counts as cell-based. The note with it: 3 weeks; for Total conc: total biocide concentration in paint reaching pass level (at least 75% inhibition). The protocol: as §1, §2, §3, §4, §5, §6

As usually defined, the inhibition is the change of the read-out against control, counted positive when it falls. Read a low inhibition as a weak effect. For the compound `O=C1C(Cl)C(CCl)CN1c1cccc(C(F)(F)F)c1` (centres unmarked) [Flurochloridone, 3-chloro-4-(chloromethyl)-1-[3-(trifluoromethyl)phenyl]-2-pyrrolidinone], the inhibition at 5000 ppm in assay [1] (504 h, total conc 5000 ppm) stood at 85%; in assay [2] (Stichococcus bacillaris, 504 h, total conc 5000 ppm) it was 90%. Moreover, the Total conc in assay [1] and in assay [2] was 5000 ppm each time.

For orientation: % inhibition means the share of the control response that was lost under treatment. Low values mean a weak effect, high ones a strong effect. For `CCCCNC(=O)OCC#CI` [IPBC, 3-Iodo-2-propynyl-butylcarbamate], the “% inhibition” value in assay [1] (total conc 2000 ppm) amounted to 85%; in assay [2] (total conc 2000 ppm) it was 90%. Further, the Total conc in assay [1] and in assay [2] was 2000 ppm each time.
